ChEMBL document CHEMBL1201862, “PubChem BioAssay data set” (2004)
Values belong to the molecule of their own block, whether it stands above or below them. The source made the active and inactive calls.

Tests used:
[1] = Luminescence Cell-Based Dose Response HTS to Identify Activators of Luciferase Translation or Activity in H4 […] Cells. [Related pubchem assays: 1829 (Project Summary), 1814 (Primary HTS)]; assay type: functional
[2] = target: Cytochrome P450 3A4 (Homo sapiens, UniProt P08684);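 further: CYP3A4 tested as one member of a cytochrome P450 panel screen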
Cytochrome P450 3A4, sequence (P08684 whole entry): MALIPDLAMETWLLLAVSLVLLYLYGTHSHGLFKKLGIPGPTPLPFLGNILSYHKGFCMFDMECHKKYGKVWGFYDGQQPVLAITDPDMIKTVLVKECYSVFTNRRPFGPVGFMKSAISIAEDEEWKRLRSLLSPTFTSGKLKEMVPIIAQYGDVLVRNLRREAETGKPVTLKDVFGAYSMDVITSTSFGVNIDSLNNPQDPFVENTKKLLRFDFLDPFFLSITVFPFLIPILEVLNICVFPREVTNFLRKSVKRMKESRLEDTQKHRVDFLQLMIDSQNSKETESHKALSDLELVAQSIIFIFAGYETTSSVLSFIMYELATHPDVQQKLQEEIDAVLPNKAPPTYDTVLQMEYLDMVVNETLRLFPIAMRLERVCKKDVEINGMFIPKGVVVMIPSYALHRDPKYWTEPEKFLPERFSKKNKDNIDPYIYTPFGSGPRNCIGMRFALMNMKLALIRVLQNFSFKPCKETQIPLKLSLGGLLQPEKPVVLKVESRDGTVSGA

[3] = target: Cytochrome P450 2C19 (Homo sapiens, UniProt P33261); test: Cytochrome panel assay with activity outcomes. Panel member name: p450-cyp2c19 Compounds with AC50 equal or less than 10 uM are considered active; assay type: functional
Cytochrome P450 2C19, sequence (P33261 whole entry): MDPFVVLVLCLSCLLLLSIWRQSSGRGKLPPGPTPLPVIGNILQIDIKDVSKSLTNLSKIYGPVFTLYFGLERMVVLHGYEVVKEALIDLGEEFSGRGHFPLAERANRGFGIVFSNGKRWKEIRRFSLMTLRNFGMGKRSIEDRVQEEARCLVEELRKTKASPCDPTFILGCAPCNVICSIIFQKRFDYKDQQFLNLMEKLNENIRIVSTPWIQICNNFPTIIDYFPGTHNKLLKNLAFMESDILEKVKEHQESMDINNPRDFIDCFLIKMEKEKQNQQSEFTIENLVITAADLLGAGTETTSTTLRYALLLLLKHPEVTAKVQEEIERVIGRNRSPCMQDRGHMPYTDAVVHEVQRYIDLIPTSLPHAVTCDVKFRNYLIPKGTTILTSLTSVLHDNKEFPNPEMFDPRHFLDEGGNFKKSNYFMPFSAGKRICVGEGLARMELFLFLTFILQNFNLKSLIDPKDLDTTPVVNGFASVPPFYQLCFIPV

[4] = Trypanosoma cruzi growth suppression in host cells – NIH3T3 host cells, beta-gal luminescence, confirmation (AID 2044); assay type: functional, cell-based;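 further: intracellular parasites grown in NIH/3T3 mouse fibroblasts as host cells; luminescent beta-galactosidase reporter signal from transgenic T. cruzi replicating inside host cells; inhibitors lower the luminescence signal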
[5] = NIH3T3 cell viability loss – ATP luminescence, mouse fibroblasts, counter-screen, dose response (AID 2010); assay type: functional, cell-based;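 further: cells exposed to compound for about 90 hours before reading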
[6] = target: Cytochrome P450 2C9 (Homo sapiens, UniProt P11712)
Cytochrome P450 2C9, sequence (P11712 whole entry): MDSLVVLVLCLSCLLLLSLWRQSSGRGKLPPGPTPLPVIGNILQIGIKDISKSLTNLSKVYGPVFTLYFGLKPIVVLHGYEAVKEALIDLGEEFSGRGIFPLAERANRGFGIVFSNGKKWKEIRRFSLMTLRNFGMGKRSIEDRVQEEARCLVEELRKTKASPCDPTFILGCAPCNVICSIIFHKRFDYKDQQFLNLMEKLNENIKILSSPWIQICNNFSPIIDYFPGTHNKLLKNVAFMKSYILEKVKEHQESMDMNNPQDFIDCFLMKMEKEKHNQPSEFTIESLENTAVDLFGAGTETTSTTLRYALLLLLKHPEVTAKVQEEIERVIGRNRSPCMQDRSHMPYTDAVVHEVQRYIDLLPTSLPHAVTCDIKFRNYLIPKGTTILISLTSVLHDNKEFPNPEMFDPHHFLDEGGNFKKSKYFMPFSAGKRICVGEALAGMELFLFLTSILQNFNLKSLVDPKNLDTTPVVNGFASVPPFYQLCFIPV

[7] = target: T1, Rac GTPase-activating protein 1 (Homo sapiens, UniProt Q9H0H5); test: blockers of MgcRacGAP-driven Rac1 GTP hydrolysis – biochemical, ADP Hunter fluorescence, primary and confirmatory, confirmation (AID 624330); assay type: functional
T1 sequence (Q9H0H5 whole entry): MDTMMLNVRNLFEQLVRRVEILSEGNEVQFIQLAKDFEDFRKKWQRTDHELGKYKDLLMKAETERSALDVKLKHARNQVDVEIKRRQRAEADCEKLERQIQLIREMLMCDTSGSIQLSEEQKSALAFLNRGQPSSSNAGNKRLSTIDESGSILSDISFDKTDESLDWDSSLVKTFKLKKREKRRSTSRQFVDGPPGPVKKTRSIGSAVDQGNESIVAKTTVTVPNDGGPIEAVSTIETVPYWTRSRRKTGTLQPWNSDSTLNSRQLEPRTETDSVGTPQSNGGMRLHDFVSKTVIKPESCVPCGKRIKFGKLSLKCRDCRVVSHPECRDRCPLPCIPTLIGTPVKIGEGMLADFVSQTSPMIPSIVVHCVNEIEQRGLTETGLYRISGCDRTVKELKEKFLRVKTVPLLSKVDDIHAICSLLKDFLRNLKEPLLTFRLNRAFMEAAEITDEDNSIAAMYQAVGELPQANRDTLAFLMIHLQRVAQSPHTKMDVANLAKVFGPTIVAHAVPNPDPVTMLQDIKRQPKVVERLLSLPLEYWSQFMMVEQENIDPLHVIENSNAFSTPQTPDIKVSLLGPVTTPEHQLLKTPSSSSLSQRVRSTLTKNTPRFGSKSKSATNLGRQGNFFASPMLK

Structure (SMILES): Cc1ccc(NC(=O)c2ccc(OC(=O)CCN3C(=O)c4ccccc4C3=O)cc2)cc1
EC50 [1]: 37.8 µM (active)

AC50 [2]: 15.8 µM (inconclusive)
Structure (SMILES): CCNc1ncc2nc(C)c(=O)n(CCc3ccccc3)c2n1

AC50 [3]: inconclusive
Structure (SMILES): C[C@H]1COC(=O)[C@H]2CCCN2C(=O)[C@@H](C)COC(=O)[C@H](Cc2ccccc2)NC1=O

AC50 [3]: inconclusive
Structure (SMILES): Cc1ccc(CS(=O)(=O)CCC(=O)NCCCN2CCCC2)cc1

AC50 ([3]; read-out: AC50): 3.98 µM (inconclusive)
AC50 [2]: 25.1 µM (inconclusive)
Structure (SMILES): CC(=O)OC1COC(N2CCc3cc([N+](=O)[O-])ccc32)C(OC(C)=O)C1OC(C)=O (stereo not drawn)

Structure (SMILES): CCCn1c2c(c(O)c(C(=O)Nc3ccc(OC)cc3)c1=O)CCCC2
EC50 [4]: 2.88 µM (active)
EC50 [5]: > 30 µM (not active)

AC50 ([3]; read-out: AC50): 5.01 µM (inconclusive)
AC50 [2]: 14.1 µM (inconclusive)
Structure (SMILES): COc1ccc2oc(C(=O)c3ccccc3)c(N)c2c1

Structure (SMILES): CN(C)c1nc(NC(C)(C)C)nc(NC(C)(C)C)n1
EC50 [4]: 0.596 µM (active)
EC50 [5]: > 60 µM (not active)

Structure (SMILES): Cc1[nH]c2ccccc2c1C(=O)CN1CC=C(c2ccccc2)CC1
EC50 [4]: 0.857 µM (active)
EC50 [5]: > 60 µM (not active)

Structure (SMILES): CCc1cccc(CN2CCC(CNC(=O)Nc3ccc(Cl)cc3)CC2)c1
EC50 [4]: 1.25 µM (active)
EC50 [5]: > 60 µM (not active)

AC50 [2]: 14.1 µM (inconclusive)
AC50 [6]: 7.94 µM (inconclusive)
Structure (SMILES): COC(=O)C1CCN(c2cc(=O)n(C3CCCCC3)c(=O)[nH]2)CC1

AC50 [6]: 2.51 µM (inconclusive)
Structure (SMILES): CC(C)C(=O)Nc1ccc(C(=O)NNC(=O)CCCOc2ccc(Cl)cc2Cl)cc1

AC50 ([3]; read-out: AC50): 15.8 µM (inconclusive)
AC50 [2]: 15.8 µM (inconclusive)
Structure (SMILES): Cc1ccccc1-c1ccc2ncnc(N3CCNCC3)c2c1

Structure (SMILES): O=C1CN2CCN(CC2)CC(=O)Nc2ccc(cc2)S(=O)(=O)c2ccc(cc2)NC(=O)CN2CCN(CC2)CC(=O)Nc2ccc(cc2)S(=O)(=O)c2ccc(cc2)N1
AC50 [6]: 0.398 µM (inconclusive)

AC50 [6]: 3.98 µM (inconclusive)
Structure (SMILES): Nc1ccc(Oc2ccc3nc(-c4ccccc4)c(-c4ccc([N+](=O)[O-])cc4)nc3c2)cc1

AC50 ([3]; read-out: AC50): 15.8 µM (inconclusive)
Structure (SMILES): O=C(c1cc(-c2ccncc2)nc2ccccc12)N1CCN(c2ccc(N3CCOCC3)nn2)CC1

IC50 [7]: 66 µM (active)
Structure (SMILES): COc1ccc(OC)c(CN2CCN(Cc3cccc4ccccc34)CC2)c1

IC50 [7]: 157 µM (active)
Structure (SMILES): COc1ccccc1N1CCN(CC(=O)c2ccc(F)cc2)CC1

Structure (SMILES): COc1ccc(CNC(=O)C2CCCN(Cc3nc(-c4cccc(C)c4)oc3C)C2)cc1 (stereo not drawn)
EC50 [4]: 0.381 µM (active)
EC50 [5]: > 60 µM (not active)

IC50 [7]: 237 µM (active)
Structure (SMILES): COc1ccc(NC2CCCN(C(=O)CCCn3cncn3)C2)cc1OC (stereo not drawn)

AC50 [3]: inconclusive
Structure (SMILES): CCN(CC)S(=O)(=O)N1CCC(C(=O)NCc2ccc(C)cc2)CC1

AC50 [2]: 6.31 µM (inconclusive)
Structure (SMILES): Cc1cc(Br)ccc1NC(=O)CCSc1ccccc1

AC50 [6]: 0.501 µM (inconclusive)
Structure (SMILES): COc1ccccc1-c1cncnc1NCCc1cnc[nH]1

AC50 [2]: 25.1 µM (inconclusive)
Structure (SMILES): O=c1c(-c2cccc(Cl)c2)nc2cncnc2n1-c1ccccc1

AC50 ([3]; read-out: AC50): 39.8 µM (inconclusive)
Structure (SMILES): CN1CCN(c2ncnc3ccc(-c4ccc5c(c4)OCO5)cc23)CC1

AC50 [2]: 25.1 µM (inconclusive)
AC50 [6]: 8.91 µM (inconclusive)
Structure (SMILES): CCCCOC(=O)CSc1nnc(-c2cc(OC)c(OC)c(OC)c2)o1

IC50 [7]: 84.1 µM (active)
Structure (SMILES): CN1CCN(CCOCCOc2ccc(Br)cc2Cl)CC1

Structure (SMILES): Cc1nn(C(C)C(=O)N2CCCC2)c(=O)c2nn(-c3ccccc3)c(C)c12 (stereo not drawn)
EC50 [4]: 48.4 µM (active)
EC50 [5]: > 60 µM (not active)

Structure (SMILES): COc1cc(C(=O)Nc2ccc3c(c2)N(C(=O)CCN(C)C)c2ccccc2CC3)cc(OC)c1OC
EC50 [4]: 0.642 µM (active)
EC50 [5]: > 60 µM (not active)

IC50 [7]: 225 µM (active)
Structure (SMILES): COCCNCc1nc(O)c2c(-c3ccccc3)c(C)sc2n1

AC50 [2]: 20 µM (inconclusive)
Structure (SMILES): CS(=O)(=O)N1CCC2(CC1)CN(c1ncccn1)C2

AC50 [2]: 5.01 µM (inconclusive)
Structure (SMILES): COC(=O)[C@@]1(Cc2ccc(F)cc2)[C@@H]2C(=CC(=O)[C@H]2CC(=O)C(=O)N2CCCC2)CN1C(=O)c1ccccc1

AC50 [6]: 2.24 µM (inconclusive)
Structure (SMILES): CCOC(=O)c1cc(NC(=O)c2ccc(OC)cc2)c(=O)oc1-c1ccccc1

AC50 [6]: 0.794 µM (inconclusive)
Structure (SMILES): CN(Cc1ccco1)c1ncncc1-c1ccc2c(c1)OCO2

Structure (SMILES): Cc1cc(/C=C2/NC(=O)N(Cc3ccccc3F)C2=O)c(C)n1C(C)C
EC50 [4]: 0.154 µM (active)
EC50 [5]: > 60 µM (not active)

AC50 ([3]; read-out: AC50): 20 µM (inconclusive)
AC50 [2]: 7.08 µM (inconclusive)
Structure (SMILES): CCC(O)CNc1nc(-n2nc(C)cc2C)nc2sc3c(c12)CC(C)(C)OC3 (stereo not drawn)

Structure (SMILES): CSc1nc(N)nc(SCC(=O)C23CC4CC(CC(C4)C2)C3)c1C#N
EC50 [4]: 1.59 µM (active)
EC50 [5]: > 60 µM (not active)

IC50 [7]: 244 µM (active)
Structure (SMILES): COc1cc(OC)c(OC)cc1CN1CCN(C(=O)c2cccc3ccccc23)CC1

Structure (SMILES): COc1ccc(-c2cnc(N)nc2-c2ccc(OCc3ccccc3)cc2O)cc1
EC50 [4]: 2.19 µM (active)
EC50 [5]: 10.6 µM (active)

AC50 [6]: 1.58 µM (inconclusive)
Structure (SMILES): O=C(CN(c1ccccc1)S(=O)(=O)c1ccccc1[N+](=O)[O-])NN=C1CCCCCCC1

Structure (SMILES): O=C(Nc1ccccc1N1CCCC1)c1ccc([N+](=O)[O-])cc1Cl
EC50 [4]: 2.37 µM (active)
EC50 [5]: > 60 µM (not active)

AC50 [2]: 12.6 µM (inconclusive)
Structure (SMILES): Cc1noc(C)c1C(=O)N1CCC2(CCN(Cc3ccncc3)CC2)CC1

Structure (SMILES): CCCN1CCC(N(C)CCc2ccc(OC)c(OC)c2)CC1
EC50 [4]: 0.124 µM (active)
EC50 [5]: > 60 µM (not active)

AC50 [6]: 1.26 µM (inconclusive)
Structure (SMILES): CCC(=O)NC(Nc1sc2c(c1C(=O)OC)CCCC2)(C(F)(F)F)C(F)(F)F

IC50 [7]: 45.1 µM (active)
Structure (SMILES): O=C(CSc1ccc2ccccc2c1)N1CCN(c2ccc(O)cc2)CC1

AC50 ([3]; read-out: AC50): 1.26 µM (inconclusive)
AC50 [2]: 1.26 µM (inconclusive)
Structure (SMILES): CCOC(=O)Nc1ccc2c(c1)N(C(=O)CCN1CCN(C)CC1)c1ccccc1S2

Structure (SMILES): Cn1nc([N+](=O)[O-])nc1Sc1ccc(Cl)cc1
EC50 [4]: 0.108 µM (active)
EC50 [5]: > 30 µM (not active)

AC50 [6]: 15.8 µM (inconclusive)
Structure (SMILES): CCC(=O)N[C@@H]1CCc2cccc(OC)c2C1

AC50 ([3]; read-out: AC50): 35.5 µM (inconclusive)
Structure (SMILES): CCCCNC(=O)C1CCN(Cc2ccccn2)CC1

Structure (SMILES): CCN(CC)CCN(C(=O)c1cccc([N+](=O)[O-])c1)c1nc2ccc(OC)cc2s1
EC50 [4]: 0.158 µM (active)
EC50 [5]: > 60 µM (inconclusive)

AC50 ([3]; read-out: AC50): 6.31 µM (inconclusive)
AC50 [2]: 5.01 µM (inconclusive)
AC50 [6]: 2.24 µM (inconclusive)
Structure (SMILES): CCOC(=O)c1sc(NC(=O)CCCCCN2C(=O)c3cccc4cccc(c34)C2=O)nc1C

AC50 [2]: 20 µM (inconclusive)
Structure (SMILES): CC(C)CC1NC(=S)N(C2CCCCC2)C1=O (stereo not drawn)

AC50 [6]: 28.2 µM (inconclusive)
Structure (SMILES): CC(C)(C)C(=O)OCc1cn(-c2ccc(Cl)cc2)nn1

AC50 [6]: 1.26 µM (inconclusive)
Structure (SMILES): Cc1ccccc1-c1ccc2ncnc(NCc3cccs3)c2c1

AC50 ([3]; read-out: AC50): 0.0316 µM (inconclusive)
Structure (SMILES): O=C(O)C1CCN(c2ncccn2)CC1

Structure (SMILES): CC(=O)c1cccc(Nc2cc(C)nc3c(C)cc(C)cc23)c1
EC50 [4]: 1.42 µM (active)
EC50 [5]: > 60 µM (inconclusive)

AC50 ([3]; read-out: AC50): 20 µM (inconclusive)
Structure (SMILES): O=C(NC1CCCCC1)C(c1ccccc1)N1CCOCC1 (stereo not drawn)

IC50 [7]: 145 µM (active)
Structure (SMILES): COc1cc(C(=O)N/N=C(\C)c2ccc(NC(=O)Cc3ccccc3)cc2)ccc1O

IC50 [7]: 50.4 µM (active)
Structure (SMILES): CN(C)/N=C/c1ccc(OC(=O)c2cccc([N+](=O)[O-])c2)cc1

AC50 ([3]; read-out: AC50): 2.24 µM (inconclusive)
Structure (SMILES): Cc1ccc(/C=N/n2c(S)nnc2COc2ccccc2)s1

AC50 [6]: 0.794 µM (inconclusive)
Structure (SMILES): COc1ccc(CNc2ncncc2-c2ccccc2OC)c(OC)c1

Structure (SMILES): C[N+]1(C)CCN(c2ccccc2)CC1 [DIMETHYLPHENYLPIPERAZINIUM]
AC50 [2]: 10 µM (inconclusive)

Structure (SMILES): O=C1C[C@@H](c2ccc(O)cc2)Oc2cc(O)cc(O)c21 [NARINGENIN]
AC50 ([3]; read-out: AC50): 3.98 µM (inconclusive)

AC50 ([3]; read-out: AC50): 3.98 µM (inconclusive)
Structure (SMILES): CC(=O)Oc1cc(C(F)(F)F)ccc1C(=O)O [TRIFLUSAL]
